In brackets after ≈: the same amount, converted by molar mass.

What all share (type): functional
For assay [1], the system named is Haemophilus influenzae. In words: Antimicrobial activity against beta lactamase-nonproducing ampicillin-resistant Haemophilus influenzae MSC06647 isolate harboring Asn526Lys mutation in penicillin-binding protein 3 by broth dilution method. In general terms: In broth dilution the organism is exposed to a series of concentrations in liquid medium.
Assay [2] has as its system Haemophilus influenzae. In words: Antimicrobial activity against beta lactamase-nonproducing ampicillin-resistant Haemophilus influenzae MSC06663 isolate harboring Met377Ile, Ser385Thr and Asn526Lys mutations in penicillin-binding protein 3 by broth dilution method.
The test system of assay [3] is Haemophilus influenzae. Nature of the assay: Antimicrobial activity against rifampin-resistant Haemophilus influenzae Rd clone by broth dilution method.

Turning to `CC/C=C(\C(=O)N[C@@H]1C(=O)N2C(C(=O)O)=C(COC(N)=O)CS[C@H]12)c1csc(N)n1` [CEFCAPENE], the results for the MIC against Haemophilus influenzae [1], against Haemophilus influenzae [2] and with Haemophilus influenzae [3] were 0.25 µg/mL (≈ 0.551 µM), 2 µg/mL (≈ 4.41 µM) and 0.008 µg/mL (≈ 0.0176 µM), respectively.

With `C=CC1=C(C(=O)O)N2C(=O)[C@@H](NC(=O)/C(=N\O)c3csc(N)n3)[C@H]2SC1` [CEFDINIR], the MIC turned out to be 1 µg/mL (≈ 2.53 µM) in the assay with Haemophilus influenzae [1], 2 µg/mL (≈ 5.06 µM) against Haemophilus influenzae [2] and 0.25 µg/mL (≈ 0.632 µM) in the assay on Haemophilus influenzae [3].

With `COCC1=C(C(=O)O)N2C(=O)[C@@H](NC(=O)/C(=N\OC)c3csc(N)n3)[C@H]2SC1` [CEFPODOXIME], the MIC with Haemophilus influenzae [1] was determined as 1 µg/mL (≈ 2.34 µM); against Haemophilus influenzae [2], 8 µg/mL (≈ 18.7 µM); in the assay on Haemophilus influenzae [3], 0.03 µg/mL (≈ 0.0702 µM).

On to `CO/N=C(\C(=O)N[C@@H]1C(=O)N2C(C(=O)OCOC(=O)C(C)(C)C)=C(/C=C\c3scnc3C)CS[C@H]12)c1csc(N)n1` [CEFDITOREN PIVOXIL], for which the MIC against Haemophilus influenzae [1] is 0.06 µg/mL (≈ 0.0967 µM); against Haemophilus influenzae [2] it was 0.5 µg/mL (≈ 0.805 µM); against Haemophilus influenzae [3], 0.008 µg/mL (≈ 0.0129 µM).

Regarding `CC1(C)S[C@@H]2[C@H](NC(=O)[C@H](N)c3ccc(O)cc3)C(=O)N2[C@H]1C(=O)O` [AMOXICILLIN], the MIC was found to be 4 µg/mL (≈ 10.9 µM) in the assay with Haemophilus influenzae [1], 1 µg/mL (≈ 2.74 µM) in the assay on Haemophilus influenzae [2] and 0.5 µg/mL (≈ 1.37 µM) with Haemophilus influenzae [3].

Consider `C[C@@H](O)[C@H]1C(=O)N2C(C(=O)O)=C(SC3CN(C4=NCCS4)C3)[C@H](C)[C@H]12` [TEBIPENEM], for which the MIC with Haemophilus influenzae [1] is 1 µg/mL (≈ 2.61 µM); in the assay on Haemophilus influenzae [2], 0.25 µg/mL (≈ 0.652 µM); in the assay with Haemophilus influenzae [3], 0.06 µg/mL (≈ 0.156 µM).

For `CO/N=C(\C(=O)N[C@@H]1C(=O)N2C(C(=O)O)=C(COC(N)=O)CS[C@H]12)c1ccco1` [CEFUROXIME], the MIC in the assay on Haemophilus influenzae [1] amounted to 2 µg/mL (≈ 4.71 µM); against Haemophilus influenzae [2], 2 µg/mL (≈ 4.71 µM); in the assay on Haemophilus influenzae [3], 0.5 µg/mL (≈ 1.18 µM).

Turning to `CC=CC1=C(C(=O)O)N2C(=O)[C@@H](NC(=O)[C@H](N)c3ccc(O)cc3)[C@H]2SC1` [CEFPROZIL], the MIC is 4 µg/mL (≈ 10.3 µM) against Haemophilus influenzae [1], 4 µg/mL (≈ 10.3 µM) with Haemophilus influenzae [2] and 2 µg/mL (≈ 5.14 µM) against Haemophilus influenzae [3].

Turning to `CC1(C)S[C@@H]2[C@H](NC(=O)[C@H](N)c3ccccc3)C(=O)N2[C@H]1C(=O)O` [AMPICILLIN], the MIC in the assay on Haemophilus influenzae [1] came to 2 µg/mL (≈ 5.72 µM); with Haemophilus influenzae [2], 1 µg/mL (≈ 2.86 µM); with Haemophilus influenzae [3], 0.25 µg/mL (≈ 0.715 µM).

Source of the values: ChEMBL document CHEMBL1255349, “Comparison of the efficacies of oral beta-lactams in selection of Haemophilus influenzae transformants with mutated ftsI genes” (2008).
